Assay results published in the supplement of paper PMC11451515.

How the values were obtained:
Assay in all cases: AUC of viability dose-response curve (% viability x log10 dose units); higher = less sensitive
Conditions in all cases: 48 h
[1] = tested on: SEM cells
Summary of the method: (§1)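 Area under the curve was integrated by trapezoidal rule from a log-logistic fit of normalised viability, with curves exceeding full viability scaled and quality-control failures removed. The fit had four parameters over log10 doses. Viability came from CellTiter-Glo One luminescence, normalised per plate to DMSO and cell-free wells, after leukemia cells adapted to each medium (500 or 1000 cells/well, 1536-well plates) were exposed to library compounds in DMSO for 48 h at 37°C. The 11 threefold doses ran from 47 μM to 0.79 nM.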

[2] = tested on: NOMO1
Summary of the method: as §1

[3] = tested on: P12-Ichikawa
Summary of the method: as §1

[4] = RPMI 5 mM glucose + 10% dialyzed FBS

Row | Structure (SMILES) | AUC of viability dose-response curve ([1]; HPLM + 10% dialyzed FBS) | AUC of viability dose-response curve ([1]; RPMI 5 mM glucose + 10% FBS) | AUC of viability dose-response curve [1, 4] | AUC of viability dose-response curve ([2]; HPLM + 10% dialyzed FBS) | AUC of viability dose-response curve ([2]; RPMI 5 mM glucose + 10% FBS) | AUC of viability dose-response curve [2, 4] | AUC of viability dose-response curve ([3]; HPLM + 10% dialyzed FBS) | AUC of viability dose-response curve ([3]; RPMI 5 mM glucose + 10% FBS) | AUC of viability dose-response curve [3, 4]
1 | CNC(=O)c1c(F)cccc1Nc1nc(Nc2cc3c(cc2OC)CCN3C(=O)CN(C)C)nc2[nH]ccc12 | 269 | 253 | 272 | 384 | 459 | 454 | 446 | 463 | 454
2 | CN(C)c1ccc(C(=O)NCCCCCCC(=O)NO)cc1 | 311 | 314 | 316 | 358 | 343 | 354 | 329 | 330 | 317
3 | O=C(NC1CC1)c1cccc(-c2ccc3c(NC(=O)C4CC4)n[nH]c3c2)c1 | 430 | 425 | 422 | 450 | 448 | 451 | 418 | 419 | 426
4 | O=C1c2cccc(O)c2C(=O)c2c(O)cc(CO)cc21 | 474 | 451 | 422 | 417 | 424 | 451 | 452 | 450 | 431
5 | CN[C@@H](C)C(=O)N[C@H]1CCCC[C@H]2CC[C@@H](C(=O)N[C@@H](c3ccccc3)c3cn(CCCCc4ccc(CCCCn5cc([C@@H](NC(=O)[C@@H]6CC[C@@H]7CCCC[C@H](NC(=O)[C@H](C)NC)C(=O)N76)c6ccccc6)nn5)cc4)nn3)N2C1=O | 431 | 417 | 418 | 250 | 325 | 297 | 465 | 471 | 450
6 | CCOc1cc2c(c(F)c1OCC)C(=N)N(CC(=O)c1cc(N3CCOCC3)c(OC)c(C(C)(C)C)c1)C2 | 465 | 464 | 453 | 464 | 435 | 453 | 465 | 472 | 475
7 | Clc1ccc(COC(Cn2ccnc2)c2ccc(Cl)cc2Cl)cc1 (stereo not given) | 408 | 468 | 431 | 473 | 473 | 470 | 477 | 463 | 452
8 | CCc1cc(/C(C)=N/OCc2ccc(C3CCCCC3)c(C(F)(F)F)c2)ccc1CN1CC(C(=O)O)C1 | 455 | 452 | 463 | 385 | 418 | 420 | 418 | 414 | 414
9 | CC(C)(Cc1ccc2ccccc2c1)NC[C@@H](O)COc1cccc(Cl)c1C#N | 448 | 466 | 438 | 458 | 455 | 451 | 453 | 449 | 451
10 | CCCCCCCCCCCCCCCC(=O)OC[C@@H](NC(=O)C(Cl)Cl)[C@H](O)c1ccc([N+](=O)[O-])cc1 | 464 | 468 | 455 | 450 | 461 | 445 | 470 | 429 | 461
